Results: US20030232087A1, “Bioactive agent release coating with aromatic poly(meth)acrylates” (priority 2002, published 2003)

Legend:
[1] = Bioactive Agent Release Assay, β-estradiol from coated stents; format: physicochemical; details: pEVA/pBMA 14/86% (w/w), coated at 0, 20, 30 or 40% relative humidity at 22° C.; PBS, 37° C.; FIG. 3
Protocol: A polymer coating solution containing poly(ethylene-co-vinylacetate) with a vinyl acetate concentration of 33% (w/w) and poly(n-butyl methacrylate) was prepared in 5 tetrahydrofuran at a polymer ratio of 14/86% (w/w), respectively. β-estradiol was added to the polymer coating solution after dissolution of the polymer in order to provide a coating composition of Applicant's above-captioned copending application in the form a one part system The bioactive agent/polymer ratio of the β-estradiol containing polymer solution was 30/70% (w/w) at a concentration of 10 mg/ml.
Eighteen-millimeter long, electropolished stainless steel stents with a 2 mm outer diameter were fabricated (Laserage Technology Corporation, Waukegan Ill.). […]
(§1) A suitable Bioactive Agent Release Assay, as described herein, can be used to determine the extent and rate of bioactive agent release under physiological conditions. In general it is desirable that less that 50% of the total quantity of the bioactive agent be released in the first 24 hours. It is frequently desirable for quantities of bioactive agent to be released for a duration of at least 30 days.
Except as otherwise provided herein, each coated stent was placed in an amber vial with 1.6 mls of PBS. […] The concentration of β-estradiol in each PBS sample was determined using UV spectroscopy.

[2] = Bioactive Agent Release Assay, dextran-TRITC from coated discs with polymer topcoat; format: physicochemical; details: pEVA (33% vinyl acetate)/pBMA topcoat coated at 48% relative humidity compared with 10% relative humidity; PBS, 37° C.; FIG. 2
Protocol: Two solutions were prepared in order to provide a coating composition of Applicant's copending application in the form of a two part system. The first solution was an aqueous solution containing the bioactive agent, dextran-TRITC, at a concentration of 15 mg/ml. The second solution contained poly(ethylene-co-vinylacetate) with a vinyl acetate concentration of 33% (w/w) and poly(n-butyl methacrylate), with approximate weight average molecular weight of 337 kilodaltons. The poly(n-butyl methacrylate) and poly(ethylene-co-vinylacetate) were purified by extraction with organic solvents to remove impurities, e.g., monomer residues. The polymers of the second solution were dissolved in tetrahydrofuran at a concentration of 10 mg/ml. […]
as §1, with “as describe” for “as described”, “less than” for “less that”
Except as otherwise provided herein, each coated disc was placed in an amber vial with 4 mls of PBS. […] The concentration of bioactive agent in each PBS sample was determined using UV spectroscopy. […]

Compound	β-estradiol rate of release from coating [1]	release rate of bioactive agent from composite coating [2]
C[C@]12CC[C@@H]3c4ccc(O)cc4CC[C@H]3[C@@H]1CC[C@@H]2O [β-estradiol]	different humidity level conditions can be used to control the β-estradiol rate of release	–
tetramethylrhodamine isothiocyanate-Dextran [dextran-TRITC]	–	faster rate
